Experimental data: paper PMC9481563, “Structural insights into the pSer/pThr dependent regulation of the SHP2 tyrosine phosphatase in insulin and CD28 signaling” (Nature Communications, 2022)

The compounds below were run against T1, inactive SHP2 catalytic domain Hillmut (K274E) (Homo sapiens, UniProt Q06124, C459S/K274E) (assay: Fluorescence polarization titrations, SHP2 Hillmut). Details: competitive FP titration vs CF-ppIRS1 100 nM, protein fixed; n = 3 technical replicates.
T1 construct: SHP2 K274E (Hillmut); 219-528 + C459S; His6 (N); made in house; host or cells: E. coli BL21 (DE3)
T1 sequence (Q06124 219-528 K274E/C459S): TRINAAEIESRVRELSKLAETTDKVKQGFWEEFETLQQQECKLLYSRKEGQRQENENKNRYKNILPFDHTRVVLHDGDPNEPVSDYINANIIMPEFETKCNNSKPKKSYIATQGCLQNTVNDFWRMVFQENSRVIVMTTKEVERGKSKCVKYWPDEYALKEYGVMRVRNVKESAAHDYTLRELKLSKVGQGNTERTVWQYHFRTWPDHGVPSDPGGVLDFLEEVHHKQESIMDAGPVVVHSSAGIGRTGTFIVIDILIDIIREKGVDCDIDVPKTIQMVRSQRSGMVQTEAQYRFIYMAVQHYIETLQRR
Type: binding
From the text: The two SH2 domains of PI3KR1 (UniProt P27986; nSH2: 321−433 cSH2: 614–724) were cloned from HEK293T cDNA pool, and subsequently ligated into a modified pET vector encoding maltose binding protein (MBP) tag on the N-terminal and a hexa-His tag on the C-terminal end of the construct. Similarly, the catalytic, tyrosine phosphatase domains of PTPRε (P23469 first domain: 107–399) and PTP1B (P18031; 1–229) were cloned from a HEK293T cDNA pool, and inserted into a pBH4 vector encoding an N-terminal His6 tag (for the final binding experiments, an MBP-tagged version of PTPRε was employed). […] Surface mutants of SHP2 were constructed from the SHP2-C459S plasmid, using the QuickChange protocol. The D425A and H426A catalytic site mutants and all enzymatically active surface mutants were generated similarly, but from the plasmid encoding the wild-type catalytic domain of SHP2. Wild-type C-terminal FLAG-tagged human IRS1 was cloned between HindIII-NotI sites of pcDNA3.1(+) vector (#V79020 Invitrogen, Waltham MA USA). Ser/Ala mutant IRS1 was generated by replacing the region of S616/S636/S666/S736 positions with a cassette carrying S616A/S636A/S666A/S736A mutations. All constructs were validated by complete Sanger sequencing before protein expression and purification. The oligonucleotide sequences used are shown on Supplementary table 4.
Fluorescence polarization (FP) assays were performed as follows: In direct titration experiments, protein concentration was varied in an 1/2 or 2/3 dilution series (90 µl protein+ 45 µl mix), while concentration of the reporter peptide (CF-ppIRS1) was kept constant at 100 nM. In competitive titrations, the labelled CF-ppIRS1 peptide and protein were both fixed (at 50–80% saturation) and the unlabelled competitor peptide concentration was varied. Fluorescence polarization was always measured in triplicates, on black Corning low volume round bottom 384-well plates (with 10 ul volumes), using a BioTek Cytatation 5 reader, with the green fluorescent protein (GFP) cube filter set (ex: 485/20, em: 528/20, gain: 50, height: 7.5). Fluorescence polarization data was evaluated on Origin 2018. The dissociation constants (Kd) were determined by using the appropriate quadratic and cubic equations inserted as a user-defined function and applying nonlinear fit until convergence. The fitting formulae are shown at Supplementary note 1. Kd ratio distributions for Fig. 6 were calculated using a Monte-Carlo approach (Supplementary note 2).
Supplementary note 1. Curve fitting of fluorescence polarization (FP) measurements.
To evaluate polarization values from direct and competitive titrations, we used the following fitting formulae in Origin 2018, as detailed below.
Direct titration curves were fitted according to the following formula: […]
Where Imin is the minimal anisotropy, Imax is the (asymptotically estimated) maximal intensity. K0 is the starting concentration of the protein, while T0 is the (fixed) concentration of the labelled peptide and Kd is the dissociation constant.
Competitive titration curves were fitted with a different formula (In addition to those defined above, constants KdT KdB B0 T0 and D0 here refer to the Kd derived from the direct titration, the unknown Kd of the analyte, the labelled peptide concentration, the competitor peptide concentration as well as the protein concentration, respectively).
The ± sign refers to two different scenarios, depending on the sign of discriminant (KdT > KdB or […]). For unknown analytes, the choice of sign is not arbitrary, as the fitting will not converge unless the appropriate formula is chosen: […]
Where A, B and C correspond to the following expressions: […]

Compound	Kd
CSCC[C@H](NC(=O)[C@H](Cc1ccc(OP(=O)(O)O)cc1)NC(=O)[C@H](CC(=O)O)NC(=O)[C@H](CO)NC(=O)[C@H](Cc1c[nH]cn1)NC(=O)[C@H](CC(C)C)NC(=O)[C@H](CC(C)C)NC(=O)[C@H](CCCNC(=N)N)NC(=O)[C@H](CO)NC(=O)[C@@H](N)CCCNC(=N)N)C(=O)N[C@@H](CC(N)=O)C(=O)N[C@@H](CCSC)C(=O)N[C@H](C(=O)N1CCC[C@H]1C(=O)N[C@@H](CCCNC(=N)N)C(=O)N[C@@H](CCCNC(=N)N)C(=O)O)[C@@H](C)O [p0CD28]	54.6 ± 5.12 µM
CSCC[C@H](NC(=O)[C@@H]1CCCN1C(=O)[C@H](CCSC)NC(=O)[C@H](Cc1ccc(OP(=O)(O)O)cc1)NC(=O)[C@H](CC(=O)O)NC(=O)CNC(=O)[C@H](CO)NC(=O)CNC(=O)[C@H](CCCCN)NC(=O)[C@H](CCCNC(=N)N)NC(=O)CN)C(=O)N[C@@H](CO)C(=O)N1CCC[C@H]1C(=O)N[C@@H](CCCCN)C(=O)N[C@@H](CO)C(=O)O [p0IRS1]	83.9 ± 2.58 µM
CC[C@H](C)[C@H](NC(=O)[C@H](CC(N)=O)NC(=O)[C@@H](NC(=O)[C@H](Cc1ccc(OP(=O)(O)O)cc1)NC(=O)[C@H](CCC(=O)O)NC(=O)CNC(=O)[C@@H]1CCCN1C(=O)[C@H](CO)NC(=O)[C@H](CCCCN)NC(=O)[C@@H]1CCCN1C(=O)[C@@H](N)CCC(=O)O)C(C)C)C(=O)N[C@@H](CCC(=O)O)C(=O)N[C@@H](Cc1ccccc1)C(=O)O [p0SRev-IRS1]	14.8 ± 0.88 µM
CSCC[C@H](NC(=O)[C@H](Cc1ccc(OP(=O)(O)O)cc1)NC(=O)[C@H](CC(=O)O)NC(=O)[C@H](CO)NC(=O)[C@H](Cc1c[nH]cn1)NC(=O)[C@H](CC(C)C)NC(=O)[C@H](CC(C)C)NC(=O)[C@H](CCCNC(=N)N)NC(=O)[C@H](CO)NC(=O)[C@@H](N)CCCNC(=N)N)C(=O)N[C@@H](CC(N)=O)C(=O)N[C@@H](CCSC)C(=O)N[C@H](C(=O)N1CCC[C@H]1C(=O)N[C@@H](CCCNC(=N)N)C(=O)N[C@@H](CCCNC(=N)N)C(=O)O)[C@@H](C)OP(=O)(O)O [ppCD28]	11 ± 0.57 µM
CSCC[C@H](NC(=O)[C@@H]1CCCN1C(=O)[C@H](CCSC)NC(=O)[C@H](Cc1ccc(OP(=O)(O)O)cc1)NC(=O)[C@H](CC(=O)O)NC(=O)CNC(=O)[C@H](CO)NC(=O)CNC(=O)[C@H](CCCCN)NC(=O)[C@H](CCCNC(=N)N)NC(=O)CN)C(=O)N[C@@H](COP(=O)(O)O)C(=O)N1CCC[C@H]1C(=O)N[C@@H](CCCCN)C(=O)N[C@@H](CO)C(=O)O [ppIRS1]	2.23 ± 0.14 µM
CC[C@H](C)[C@H](NC(=O)[C@H](CC(N)=O)NC(=O)[C@@H](NC(=O)[C@H](Cc1ccc(OP(=O)(O)O)cc1)NC(=O)[C@H](CCC(=O)O)NC(=O)CNC(=O)[C@@H]1CCCN1C(=O)[C@H](COP(=O)(O)O)NC(=O)[C@H](CCCCN)NC(=O)[C@@H]1CCCN1C(=O)[C@@H](N)CCC(=O)O)C(C)C)C(=O)N[C@@H](CCC(=O)O)C(=O)N[C@@H](Cc1ccccc1)C(=O)O [ppSRev-IRS1]	2.56 ± 0.28 µM
